In patent US20210317092A1 (BAYER PHARMA AKTIENGESELLSCHAFT, priority 2016, published 2021):

Target: T1, human Bradykinin B1 receptor (Homo sapiens, UniProt P46663)
T1 construct: host or cells: CHO-K1
T1 sequence (P46663 1-353): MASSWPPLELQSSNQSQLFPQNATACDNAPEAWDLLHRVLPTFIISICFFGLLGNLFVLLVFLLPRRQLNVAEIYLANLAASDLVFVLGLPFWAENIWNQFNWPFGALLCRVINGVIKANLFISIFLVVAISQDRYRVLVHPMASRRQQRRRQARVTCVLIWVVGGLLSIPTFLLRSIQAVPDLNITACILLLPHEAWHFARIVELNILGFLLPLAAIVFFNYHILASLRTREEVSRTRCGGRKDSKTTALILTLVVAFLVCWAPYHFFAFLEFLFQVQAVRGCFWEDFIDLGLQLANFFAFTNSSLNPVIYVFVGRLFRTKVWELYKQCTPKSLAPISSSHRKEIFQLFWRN
Assay: Calcium flux Assay (FLIPR) with recombinant CHO-K1 cells expressing human Bradykinin B1 receptor, in presence (hB1 IC50) or absence (hB1 free IC50) of 0.1% BSA
Type: cell-based
Conditions: in absence of 0.1% BSA, read-out: hB1 free IC50

Row | Molecule | IC50 [nM]
1 | Cc1ncc(-c2ccc(NC(=O)C3(c4cccc(Cl)c4F)CC3)cc2-c2nnn[nH]2)cn1 [Example 195, 1-(3-chloro-2-fluorophenyl)-N-[4-(2-methylpyrimidin-5-yl)-3-(1H-tetrazol-5-yl)phenyl] cyclopropane-carboxamide] | 183
2 | CCOc1ccc(-c2ccc(NC(=O)C3(c4ccc(C)c(F)c4)CC3)cc2-c2nnn[nH]2)cn1 [Example 76, N-[4-(6-ethoxypyridin-3-yl)-3-(1H-tetrazol-5-yl)phenyl]-1-(3-fluoro-4-methylphenyl) cyclopropane-carboxamide] | 12
3 | O=C(Nc1ccc(-n2ccc(C(F)(F)F)n2)c(-c2nnn[nH]2)c1)C1(c2ccc(OC(F)(F)F)cc2F)CC1 [Example 363, 1-[2-Fluoro-4-(trifluoromethoxy)phenyl]-N-{3-(1H-tetrazol-5-yl)-4-[3-(trifluoromethyl)-1H-pyrazol-1-yl]phenyl}cyclopro-panecarboxa-mide] | 37.1
4 | O=C(Nc1ccc(-c2cncc(F)c2)c(-c2nnn[nH]2)c1)C1(c2cccc(Cl)c2)CC1 [Example 335, 1-(3-chlorophenyl)-N-[4-(5-fluoropyridin-3-yl)-3-(1H-tetrazol-5-yl)phenyl]cyclopro-panecarboxa-mide] | 298
5 | CC(C)c1cnn(-c2ccc(NC(=O)C3(c4ccc(F)c(F)c4)CC3)cc2-c2nnn[nH]2)c1 [Example 397, 1-(3,4-difluorophenyl)-N-[4-(4-isopropyl-1H-pyrazol-1-yl)-3-(1H-tetrazol-5-yl)phenyl]cyclopro-panecarboxa-mide] | 38.5
6 | CC(C)(C)c1cn(-c2ccc(NC(=O)C3(c4ccc(C(F)(F)F)cc4F)CC3)cc2-c2nnn[nH]2)cn1 [Example 403, N-[4-(4-tert-butyl-1H-imidazol-1-yl)-3-(1H-tetrazol-5-yl)phenyl]-1-[2-fluoro-4-(trifluoromethyl)phenyl]cyclopro-panecarboxamide] | 20.6
7 | CCC(F)(F)c1ccc(-c2ccc(NC(=O)C3(c4ccc(OC(F)(F)F)cc4F)CC3)cc2-c2nnn[nH]2)cn1 [Example 287, N-{4-[6-(1,1-difluoropropyl)py-ridin-3-yl]-3-(1H-tetrazol-5-yl)phenyl}-1-[2-fluoro-4-(trifluoromethoxy)phenyl]cyclo-propanecarboxa-mide] | 3.93
8 | O=C(Nc1ccc(-c2ccc(C(F)F)nc2)c(-c2nnn[nH]2)c1)C1(c2ccc(OC(F)(F)F)cc2F)CC1 [Example 276, N-{4-[6-(difluoromethyl)pyridin-3-yl]-3-(1H-tetrazol-5-yl)phenyl}-1-[2-fluoro-4-(trifluoromethoxy)phenyl]cyclo-propanecarboxa-mide] | 1.83
9 | CCOc1cc(-c2ccc(NC(=O)C3(c4cccc(Cl)c4)CC3)cc2-c2nnn[nH]2)cc(C(F)(F)F)n1 [Example 166, 1-(3-chlorophenyl)-N-{4-[2-ethoxy-6-(trifluoromethyl)pyridin-4-yl]-3-(1H-tetrazol-5-yl)phenyl} cyclopropane-carboxamide] | 1130
10 | O=C(Nc1ccc(-n2cnc(C(F)(F)F)c2)c(-c2nnn[nH]2)c1)C1(c2cccc(Cl)c2)CC1 [Example 352, 1-(3-Chlorophenyl)-N-{3-(1H-tetrazol-5-yl)-4-[4-(trifluoromethyl)-1H-imidazol-1-yl]phenyl}cyclopro-panecarboxa-mide] | 1200
11 | CCc1ccn(-c2ccc(NC(=O)C3(c4cccc(Cl)c4)CC3)cc2-c2nnn[nH]2)n1 [Example 374, 1-(3-Chlorophenyl)-N-[4-(3-ethyl-1H-pyrazol-1-yl)-3-(1H-tetrazol-5-yl)phenyl]cyclopro-panecarboxa-mide] | 1890
12 | O=C(Nc1ccc(-c2ccc(C(F)(F)F)nc2)c(-c2nnn[nH]2)c1)C1(c2cc(F)cc(C(F)(F)F)c2)CC1 [Example 289, 1-[3-fluoro-5-(trifluoromethyl)phenyl]-N-{3-(1H-tetrazol-5-yl)-4-[6-(trifluoromethyl)pyridin-3-yl]phenyl}cyclopro-panecarboxa-mide] | 50.2
13 | O=C(Nc1ccc(-c2ccc(C(F)(F)F)nc2)c(-c2nnn[nH]2)c1)C1(c2ccc(F)cn2)CC1 [Example 145, 1-(5-fluoropyridin-2-yl)-N-{3-(1H-tetrazol-5-yl)-4-[6-(trifluoromethyl)pyridin-3-yl]phenyl} cyclopropane-carboxamide] | 194
14 | O=C(Nc1ccc(-c2ccc(C(F)F)nc2)c(-c2nnn[nH]2)c1)C1(c2ccc(Cl)cc2F)CC1 [Example 274, 1-(4-chloro-2-fluorophenyl)-N-{4-[6-(difluoromethyl)pyridin-3-yl]-3-(1H-tetrazol-5-yl)phenyl}cyclopro-panecarboxa-mide] | 6.35
15 | CC(C)(C)c1cn(-c2ccc(NC(=O)C3(c4cccc(Cl)c4)CC3)cc2-c2nnn[nH]2)cn1 [Example 400, N-[4-(4-tert-butyl-1H-imidazol-1-yl)-3-(1H-tetrazol-5-yl)phenyl]-1-(3-chlorophenyl)cy-clopropanecarbox-amide] | 25.4
16 | O=C(Nc1ccc(-n2cc(C(F)F)cn2)c(-c2nnn[nH]2)c1)C1(c2ccc(C(F)(F)F)cc2F)CC1 [Example 346, N-{4-[4-(Difluoromethyl)-1H-pyrazol-1-yl]-3-(1H-tetrazol-5-yl)phenyl}-1-[2-fluoro-4-(trifluoromethyl)phenyl]cyclopro-panecarboxamide] | 65.9
17 | CCOc1ccc(-c2ccc(NC(=O)C3(c4cc(F)cc(F)c4)CC3)cc2-c2nnn[nH]2)cn1 [Example 84, 1-(3,5-difluorophenyl)-N-[4-(6-ethoxypyridin-3-yl)-3-(1H-tetrazol-5-yl)phenyl] cyclopropane-carboxamide] | 19
18 | O=C(Nc1ccc(-n2cnc(C3CCC3)n2)c(-c2nnn[nH]2)c1)C1(c2cccc(Cl)c2)CC1 [Example 357, 1-(3-chlorophenyl)-N-[4-(3-cyclobutyl-1H-1,2,4-triazol-1-yl)-3-(1H-tetrazol-5-yl)phenyl]cyclopro-panecarboxa-mide] | 44.8
19 | O=C(Nc1ccc(-c2ccc(C(F)(F)F)nc2)c(-c2nnn[nH]2)c1F)C1(c2ccc(F)c(F)c2)CC1 [Example 298, 1-(3,4-difluorophenyl)-N-{2-fluoro-3-(1H-tetrazol-5-yl)-4-[6-(trifluoromethyl)pyridin-3-yl]phenyl}cyclopro-panecarboxa-mide] | 368
20 | Cn1ncc2cc(-c3ccc(NC(=O)C4(c5cccc(Cl)c5)CC4)cc3-c3nnn[nH]3)ccc21 [Example 339, 1-(3-chlorophenyl)-N-[4-(1-methyl-1H-indazol-5-yl)-3-(1H-tetrazol-5-yll)phenyl]cyclopro-panecarboxa-mide] | 23.7
21 | O=C(Nc1ccc(-n2cnc(C(F)(F)F)c2)c(-c2nnn[nH]2)c1)C1(c2ccc(F)c(F)c2)CC1 [Example 356, 1-(3,4-Difluorophenyl)-N-{3-(1H-tetrazol-5-yl)-4-[4-(trifluoromethyl)-1H-imidazol-1-yl]phenyl}cyclopro-panecarboxa-mide] | 2350
22 | CO[C@H]1CC[C@@H](c2ccc(NC(=O)C3(c4cccc(Cl)c4F)CC3)cc2-c2nnn[nH]2)CC1 [Example 189, 1-(3-chloro-2-fluorophenyl)-N-[4-(cis-4-methoxy-cyclohexyl)-3-(1H-tetrazol-5-yl)phenyl] cyclopropane-carboxamide] | 2350
23 | 1-[2-fluoro-4- (trifluoromethoxy)- phenyl]-N-{3- (1H-tetrazol-5- yl)-4-[3-(2,2,2- trifluoroethyl)- 1H-pyrazol-1- yl]phenyl}cyclopro- panecarboxa- mide [Example 390] | 14

Same assay, conditions: in presence of 0.1% BSA, read-out: hB1 IC50

Row | Molecule | IC50 [nM]
24 | Cc1ncc(-c2ccc(NC(=O)C3(c4cccc(Cl)c4F)CC3)cc2-c2nnn[nH]2)cn1 [Example 195, 1-(3-chloro-2-fluorophenyl)-N-[4-(2-methylpyrimidin-5-yl)-3-(1H-tetrazol-5-yl)phenyl] cyclopropane-carboxamide] | 311
25 | CCOc1ccc(-c2ccc(NC(=O)C3(c4ccc(C)c(F)c4)CC3)cc2-c2nnn[nH]2)cn1 [Example 76, N-[4-(6-ethoxypyridin-3-yl)-3-(1H-tetrazol-5-yl)phenyl]-1-(3-fluoro-4-methylphenyl) cyclopropane-carboxamide] | 24
26 | CN(C)c1ccc(-c2ccc(NC(=O)C3(c4cccc(Cl)c4)CC3)cc2-c2nnn[nH]2)cn1 [Example 169, 1-(3-chlorophenyl)-N-{4-[6-(dimethylamino)pyridin-3-yl]-3-(1H-tetrazol-5-yl)phenyl} cyclopropane-carboxamide] | 117
27 | O=C(Nc1ccc(-c2cncc(F)c2)c(-c2nnn[nH]2)c1)C1(c2cccc(Cl)c2)CC1 [Example 335, 1-(3-chlorophenyl)-N-[4-(5-fluoropyridin-3-yl)-3-(1H-tetrazol-5-yl)phenyl]cyclopro-panecarboxa-mide] | 517
28 | CCOc1cc(-c2ccc(NC(=O)C3(c4cccc(Cl)c4)CC3)cc2-c2nnn[nH]2)cc(C(F)(F)F)n1 [Example 166, 1-(3-chlorophenyl)-N-{4-[2-ethoxy-6-(trifluoromethyl)pyridin-4-yl]-3-(1H-tetrazol-5-yl)phenyl} cyclopropane-carboxamide] | 2160
29 | CCOc1ccc(-c2ccc(NC(=O)C3(C(C)C)CC3)cc2-c2nnn[nH]2)cn1 [Example 90, N-[4-(6-ethoxypyridin-3-yl)-3-(1H-tetrazol-5-yl)phenyl]-1-isopropyl-cyclopropane-carboxamide] | 1560
30 | O=C(Nc1cc(-c2nnn[nH]2)c(-c2ccc(C(F)(F)F)nc2)cc1O)C1(c2ccc(F)cc2F)CC1 [Example 228, 1-(2,4-Difluorophenyl)-N-{2-hydroxy-5-(1H-tetrazol-5-yl)-4-[6-(trifluoromethyl)pyridin-3-yl]phenyl} cyclopropane-carboxamide] | 88.2
31 | CCOc1cncc(-c2ccc(NC(=O)C3(c4cccc(Cl)c4)CC3)cc2-c2nnn[nH]2)c1 [Example 318, 1-(3-chlorophenyl)-N-[4-(5-ethoxypyridin-3-yl)-3-(1H-tetrazol-5-yl)phenyl]cyclopro-panecarboxa-mide] | 59.1
32 | CCOc1ccc(-c2ccc(NC(=O)C3(c4cc(F)cc(F)c4)CC3)cc2-c2nnn[nH]2)cn1 [Example 84, 1-(3,5-difluorophenyl)-N-[4-(6-ethoxypyridin-3-yl)-3-(1H-tetrazol-5-yl)phenyl] cyclopropane-carboxamide] | 41.8
33 | 1-(3- chlorophenyl)- N-[4′- (methoxymethyl)- 2-(1H- tetrazol-5- yl(biphenyl-4- yl]cyclopropane carboxamide [Example 123] | 645
34 | Cn1ncc2cc(-c3ccc(NC(=O)C4(c5cccc(Cl)c5)CC4)cc3-c3nnn[nH]3)ccc21 [Example 339, 1-(3-chlorophenyl)-N-[4-(1-methyl-1H-indazol-5-yl)-3-(1H-tetrazol-5-yll)phenyl]cyclopro-panecarboxa-mide] | 46.7
35 | COc1ccc(-c2cc(F)c(NC(=O)C3(c4ccc(F)c(Cl)c4)CC3)cc2-c2nnn[nH]2)cc1C [Example 230, 1-(3-Chloro-4-fluorophenyl)-N-[5-fluoro-4′-methoxy-3′-methyl-2-(1H-tetrazol-5-yl)biphenyl-4-yl]cyclopropane-carboxamide] | 2100
36 | CCOc1ncc(-c2ccc(NC(=O)C3(c4ccc(C(F)(F)F)cc4)CC3)cc2-c2nnn[nH]2)cc1F [Example 164, N-[4-(6-ethoxy-5-fluoropyridin-3-yl)-3-(1H-tetrazol-5-yl)phenyl]-1-[4-(trifluoromethyl)phenyl] cyclopropane-carboxamide] | 14.5
